Assay results as given in patent US7662854B2, “HIF hydroxylase inhibitors” (ISIS Innovation Limited, priority 2002, dated 2010).

Key:
HIF hydroxylases = test: assays in which the compound replaces 2-oxoglutarate as co-substrate; type: biochemical; conditions: compared with 2-oxoglutarate under analogous conditions
Excerpt: Another aspect of the invention concerns analogues of 2-oxoglutarate that act as improved (relative to 2-oxoglutarate) co-substrates for the HIF hydroxylases. Such a compound is 3-fluoro 2-oxoglutarate.

HIF hydroxylase = test: capture assay for inhibitors of HIF modification (pVHL capture); type: biochemical; conditions: result in words; screening at 2 mM of the potential inhibitor, RCC4 cell extract, 100 μM FeCl2
Experimental: In vitro screening of potential inhibitors of HIF modification was performed using a capture assay. A Gal/HIF-1α/VP16 fusion protein expressing HIF-1α residues 549-582 was prepared by IVTT (see British Application No. 0118952.1) and used as a substrate in the assay. The unlabelled substrate was immunopurified on beads, washed, and aliquots incubated in the presence of RCC4 cell extract, with 100 μM FeCl2 and 2 mM of the potential inhibitor. The inhibitors were either dissolved in DMSO or Tris as indicated. Controls, where no inhibitor but the equivalent amount of DMSO or Tris was added, were also performed. After washing, the beads were assayed for their ability to interact with 35-S labelled pVHL IVTT. Hydroxylation of the fusion protein by HIF hydroxylase present in the cell extract leads to the ability to capture the labelled pVHL and the amount of labelled protein bound to the fusion protein can then be measured to determine relative HIF hydroxylase activity. FIGS. 1 to 5 show HIF hydroxylase activity in the presence of a particular inhibitor relative to that seen in the absence of the inhibitor (the DMSO/Tris control).

activity as modulator of HIF prolyl hydroxylase (HIF hydroxylase)	SMILES	level of HIF hydroxylation (HIF hydroxylases)
	O=C(O)CC(F)C(=O)C(=O)O (centres unmarked) [3-fluoro 2-oxoglutarate, 3-fluoro-2-oxoglutaric acid]	higher level of HIF hydroxylation
highly active	O=C(O)CC1CC(=O)N(O)C1=O (centres unmarked) [Is52, (1-hydroxy-2,5-dioxo-pyrrolidin-3-yl) acetic acid]	
